This note sets out measurements from ChEMBL document CHEMBL4411344, “Synthesis and biological evaluation of new long-chain squaramides as anti-chagasic agents in the BALB/c mouse model” (Bioorg Med Chem, 2019).

For series [1], the system named is Trypanosoma cruzi. The series is described as follows: Antitrypanosomal activity against Trypanosoma cruzi MHOM/Pe/2011/Arequipa DTU 5 trypomastigotes infected in Balb/c mouse assessed as parasite-free bone marrow at 20 mg/kg, po pretreated once daily for 5 consecutive days starting from day 75 post infection followed by cyclophosphamide-induced immunosuppression on day 100 post infection measured on day 127 post infection by PCR method. Type of series: functional.

The test system of series [2] is Trypanosoma cruzi. Nature of the series: Antitrypanosomal activity against Trypanosoma cruzi MHOM/Pe/2011/Arequipa DTU 5 trypomastigotes infected in Balb/c mouse assessed as reduction in splenomegaly at 20 mg/kg, po once daily for 5 consecutive days starting from day 10 post infection measured on day 127 post infection relative to control. Format: functional. Also noted: scale not given: the % may be the effect or the level left.

The subject of series [3] is Trypanosoma cruzi. The series is described as follows: Antitrypanosomal activity against Trypanosoma cruzi MHOM/Pe/2011/Arequipa DTU 5 trypomastigotes infected in Balb/c mouse assessed as reduction in splenomegaly at 20 mg/kg, po once daily for 5 consecutive days starting from day 75 post infection measured on day 127 post infection relative to control. Format: functional. Also on record: scale not given: the % may be the effect or the level left.

Series [4] has as its system Trypanosoma cruzi. The series is described as follows: Antitrypanosomal activity against Trypanosoma cruzi MHOM/Pe/2011/Arequipa DTU 5 trypomastigotes infected in Balb/c mouse assessed as parasite-free heart at 20 mg/kg, po pretreated once daily for 5 consecutive days starting from day 10 post infection followed by cyclophosphamide-induced immunosuppression on day 100 post infection measured on day 127 post infection by PCR method. Format: functional.

The test system of series [5] is Trypanosoma cruzi. The series is described as follows: Antitrypanosomal activity against Trypanosoma cruzi MHOM/Pe/2011/Arequipa DTU 5 trypomastigotes infected in Balb/c mouse assessed as parasite-free stomach at 20 mg/kg, po pretreated once daily for 5 consecutive days starting from day 75 post infection followed by cyclophosphamide-induced immunosuppression on day 100 post infection measured on day 127 post infection by PCR method. Type of series: functional.

A short description of series [6]: Hepatotoxicity in Balb/c mouse infected with Trypanosoma cruzi MHOM/Pe/2011/Arequipa DTU 5 trypomastigotes assessed as increase in ratio of serum AST to GOT level at 20 mg/kg, po once daily for 5 consecutive days starting from day 75 post infection measured on day 81 post infection relative to control. Type of series: toxicity, organism-based. The following applies: in vivo.

Series [7] relates to Trypanosoma cruzi. Nature of the series: Antitrypanosomal activity against Trypanosoma cruzi MHOM/Pe/2011/Arequipa DTU 5 trypomastigotes infected in Balb/c mouse assessed as parasite-free brain at 20 mg/kg, po pretreated once daily for 5 consecutive days starting from day 75 post infection followed by cyclophosphamide-induced immunosuppression on day 100 post infection measured on day 127 post infection by PCR method. Format: functional.

In series [8] the test system is Trypanosoma cruzi. Nature of the series: Antitrypanosomal activity against Trypanosoma cruzi MHOM/Pe/2011/Arequipa DTU 5 trypomastigotes infected in Balb/c mouse assessed as parasite-free muscle at 20 mg/kg, po pretreated once daily for 5 consecutive days starting from day 10 post infection followed by cyclophosphamide-induced immunosuppression on day 100 post infection measured on day 127 post infection by PCR method. Type of series: functional.

Series [9] concerns Trypanosoma cruzi. The series is described as follows: Antitrypanosomal activity against Trypanosoma cruzi MHOM/Pe/2011/Arequipa DTU 5 trypomastigotes infected in Balb/c mouse assessed as parasite-free bone marrow at 20 mg/kg, po pretreated once daily for 5 consecutive days starting from day 10 post infection followed by cyclophosphamide-induced immunosuppression on day 100 post infection measured on day 127 post infection by PCR method. Type of series: functional.

Series [10] relates to Trypanosoma cruzi. The series is described as follows: Antitrypanosomal activity against Trypanosoma cruzi MHOM/Pe/2011/Arequipa DTU 5 trypomastigotes infected in Balb/c mouse assessed as reduction in Ig-G level in serum at 20 mg/kg, po once daily for 5 consecutive days starting from day 10 post infection measured on day 100 post infection by ELISA. Format: functional, organism-based. On the technique in general: In an ELISA, binding on a coated surface is turned into a signal by an enzyme label.

The nature of series [11]: Nephrotoxicity in Balb/c mouse infected with Trypanosoma cruzi MHOM/Pe/2011/Arequipa DTU 5 trypomastigotes assessed as decrease in serum urea level at 20 mg/kg, po once daily for 5 consecutive days starting from day 10 post infection measured on day 127 post infection relative to control. The following applies: in vivo. Type of series: toxicity, organism-based.
Series [12] in a line: Hepatotoxicity in Balb/c mouse infected with Trypanosoma cruzi MHOM/Pe/2011/Arequipa DTU 5 trypomastigotes assessed as increase in ratio of serum AST to GOT level at 20 mg/kg, po once daily for 5 consecutive days starting from day 10 post infection measured on day 16 post infection relative to control. Format: toxicity, organism-based. The following applies: in vivo.
Series [13] is described as follows: Nephrotoxicity in Balb/c mouse infected with Trypanosoma cruzi MHOM/Pe/2011/Arequipa DTU 5 trypomastigotes assessed as decrease in serum urea level at 20 mg/kg, po once daily for 5 consecutive days starting from day 75 post infection measured on day 81 post infection relative to control. The following applies: in vivo. Type of series: toxicity, organism-based.

Series [14] relates to Trypanosoma cruzi. Nature of the series: Antitrypanosomal activity against Trypanosoma cruzi MHOM/Pe/2011/Arequipa DTU 5 trypomastigotes infected in Balb/c mouse assessed as parasite-free adipose tissue at 20 mg/kg, po pretreated once daily for 5 consecutive days starting from day 10 post infection followed by cyclophosphamide-induced immunosuppression on day 100 post infection measured on day 127 post infection by PCR method. Format: functional.

For series [15], the system named is Trypanosoma cruzi. The series is described as follows: Antitrypanosomal activity against Trypanosoma cruzi MHOM/Pe/2011/Arequipa DTU 5 trypomastigotes infected in Balb/c mouse assessed as reduction in Ig-G level in serum at 20 mg/kg, po once daily for 5 consecutive days starting from day 10 post infection measured on day 16 post infection by ELISA. Format: functional, organism-based.

The subject of series [16] is Trypanosoma cruzi. The series is described as follows: Antitrypanosomal activity against Trypanosoma cruzi MHOM/Pe/2011/Arequipa DTU 5 epimastigotes assessed as change in mitochondrial membrane potential at IC25 after 72 hrs by Rho123 staining based flow cytometry relative to control. Format: functional.
The nature of series [17]: Toxicity in Balb/c mouse assessed as reduction in body mass at 20 mg/kg, po once daily for 5 consecutive days starting from day 75 post infection relative to control. Type of series: organism-based. The following applies: in vivo. Also on record: scale not given: the % may be the effect or the level left.
Series [18] concerns Trypanosoma cruzi. The series is described as follows: Antitrypanosomal activity against Trypanosoma cruzi MHOM/Pe/2011/Arequipa DTU 5 trypomastigotes infected in Balb/c mouse assessed as parasite-free lungs at 20 mg/kg, po pretreated once daily for 5 consecutive days starting from day 75 post infection followed by cyclophosphamide-induced immunosuppression on day 100 post infection measured on day 127 post infection by PCR method. Type of series: functional.

The subject of series [19] is Trypanosoma cruzi. The series is described as follows: Antitrypanosomal activity against Trypanosoma cruzi MHOM/Pe/2011/Arequipa DTU 5 trypomastigotes infected in Balb/c mouse assessed as parasite-free stomach at 20 mg/kg, po pretreated once daily for 5 consecutive days starting from day 10 post infection followed by cyclophosphamide-induced immunosuppression on day 100 post infection measured on day 127 post infection by PCR method. Format: functional.

In series [20] the test system is Trypanosoma cruzi. The series is described as follows: Antitrypanosomal activity against Trypanosoma cruzi MHOM/Pe/2011/Arequipa DTU 5 trypomastigotes infected in Balb/c mouse assessed as parasite-free spleen at 20 mg/kg, po pretreated once daily for 5 consecutive days starting from day 10 post infection followed by cyclophosphamide-induced immunosuppression on day 100 post infection measured on day 127 post infection by PCR method. Type of series: functional.

Series [21] relates to Trypanosoma cruzi. Nature of the series: Antitrypanosomal activity against Trypanosoma cruzi MHOM/Pe/2011/Arequipa DTU 5 trypomastigotes infected in Balb/c mouse assessed as parasite-free muscle at 20 mg/kg, po pretreated once daily for 5 consecutive days starting from day 75 post infection followed by cyclophosphamide-induced immunosuppression on day 100 post infection measured on day 127 post infection by PCR method. Format: functional.

Series [22] is described as follows: Toxicity in Balb/c mouse assessed as death at 20 mg/kg, po once daily for 5 consecutive days starting from day 10 post infection. The following applies: in vivo. Format: organism-based.

Structures are written as SMILES. Activity calls are given as the source filed them. No cut-off for these calls is given here. Where only a bound is given, the exact number is not on record here.

On to `CCCCCCCCCCCCCCCCNc1c(N(C)CCCN(C)C)c(=O)c1=O`, for which the Activity is 78% in series [1]; 66% in series [2]; 55% in [3]; 67% in [4]; 78% in series [5]; 10 to 20 U/L in series [6]. For the same compound, the Activity was 78% in series [7]; 67% in series [8]; 67% in series [9]; 10 to 20 mg/dL in series [11]; 10 to 20 U/L in [12]; 10 to 20 mg/dL in series [13]. In addition, the Activity is recorded as 67% in [14]; -80.61% in series [16]; greater than 10% in series [17]; 78% in series [18]; 67% in series [19]; 67% in series [20]. The Activity was 78% in [21] and “Non-Toxic” in series [22]. For the same compound, the result in [10] and in [15] was Active.

Consider `O=C(Cn1ccnc1[N+](=O)[O-])NCc1ccccc1` [BENZNIDAZOLE], for which the Activity was 55% in series [1]; 33% in [4]; 55% in series [5]; 20 to 30 U/L in series [6]; 55% in [7]; 33% in series [8]. For the same compound, the Activity is 33% in series [9]; 20 to 30 mg/dL in [11]; greater than 40 U/L in [12]; 20 to 30 mg/dL in series [13]; 33% in series [14]; -35.38% in series [16]. In addition, the Activity is greater than 10% in [17]; 55% in series [18]; 33% in series [19]; 33% in [20]; 55% in series [21]; “Non-Toxic” in [22]. The outcome in [2], in series [3], in [10] and in series [15] was Active.

With `CCCCCCNc1c(N(C)CCCN(C)C)c(=O)c1=O`, the outcome in [1], in series [4], in series [5], in series [7], in series [8] and in series [9] was inactive. In addition, the outcome in series [10], in series [14], in [15], in series [18], in series [19] and in series [20] was inactive. In addition, in [21], the result was inactive. Besides, the outcome in series [2] and in [3] was Active. Also, the Activity in [6] is 10 to 20 U/L; in [11], 10 to 20 mg/dL; in series [12], 30 to 40 U/L; in series [13] it was 10 to 20 mg/dL; in series [16] it was 4.69%; in series [17], greater than 10%. For the same compound, in series [22], the Activity entry is “Non-Toxic”.
